Consider two molecules from patent US20150038668A1, “Branched Polyesters Based On Citric Acid, Their Preparation And Use” (BASF SE, priority 2010, published 2015).

A short description of the data set: physchem. Particulars: thermodynamic from solid. The procedure: To increase the solubility of the low-solubility active ingredients, 40 ml of a 15% polymer solution (in DI water) were prepared. […] If the added active ingredient dissolved, further active ingredient was added, to supersaturation, followed by stirring for a further 72 hours. The resulting suspension was filtered through a 0.45 μm membrane filter and the dissolved fraction of active ingredient was determined by means of UV/Vis spectroscopy. The same method was also carried for the active ingredients alone, in order to determine the solubility of the pure active ingredient and to be able to determine the improvement through salt formation. For comparison, the solubility in 0.1 normal HCl as well was ascertained, representing the solubility of the hydrochloride salt of the corresponding base.

Structures are written as SMILES. In brackets after ≈: the same amount, converted by molar mass.

Consider `NC(N)=Nc1nc(CSCCC(N)=NS(N)(=O)=O)cs1` [Famotidine, famotidine], for which the thermodynamic solubility at 72 h runs as follows: (simulated gastric fluid) 32100 µg/mL (≈ 95100 µM); (water) 1000 µg/mL (≈ 2960 µM).

`CN(C)C(=O)C(CCN1CCC(O)(c2ccc(Cl)cc2)CC1)(c1ccccc1)c1ccccc1` [Loperamide, loperamide] yielded a thermodynamic solubility at 72 h (simulated gastric fluid) of 200 µg/mL (≈ 419 µM) and a solubility (thermodynamic) at 72 h (water) of 70 µg/mL (≈ 147 µM).

The term solubility (thermodynamic) denotes the concentration in solution at equilibrium with solid.
